The source of these data is US10479784B2, “Substituted pyrazin-2-amines as inhibitors of ATR kinase” (Vertex Pharmaceuticals Incorporated, priority 2008, dated 2019).

The term Ki denotes a dissociation constant, usually derived from enzyme kinetics or from competition with a known ligand.

For the assay, the target named is full-length ATR (Homo sapiens (Human), UniProt Q13535). Description: ATR Inhibition Assay (radioactive-phosphate incorporation). The assay is classed as biochemical. The note with it: read-out: ATR Ki. Summed up: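 Full-length human ATR (5 nM) was assayed at 25 °C in 50 mM Tris/HCl pH 7.5, 10 mM MgCl2, 1 mM DTT, with 10 μM [γ-33P]ATP and 800 μM peptide, after 10-min compound preincubation. Reactions were stopped after 24 h, captured on phosphocellulose and counted; Ki(app) came from non-linear regression of initial rates.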
full-length ATR, sequence (Q13535 whole entry): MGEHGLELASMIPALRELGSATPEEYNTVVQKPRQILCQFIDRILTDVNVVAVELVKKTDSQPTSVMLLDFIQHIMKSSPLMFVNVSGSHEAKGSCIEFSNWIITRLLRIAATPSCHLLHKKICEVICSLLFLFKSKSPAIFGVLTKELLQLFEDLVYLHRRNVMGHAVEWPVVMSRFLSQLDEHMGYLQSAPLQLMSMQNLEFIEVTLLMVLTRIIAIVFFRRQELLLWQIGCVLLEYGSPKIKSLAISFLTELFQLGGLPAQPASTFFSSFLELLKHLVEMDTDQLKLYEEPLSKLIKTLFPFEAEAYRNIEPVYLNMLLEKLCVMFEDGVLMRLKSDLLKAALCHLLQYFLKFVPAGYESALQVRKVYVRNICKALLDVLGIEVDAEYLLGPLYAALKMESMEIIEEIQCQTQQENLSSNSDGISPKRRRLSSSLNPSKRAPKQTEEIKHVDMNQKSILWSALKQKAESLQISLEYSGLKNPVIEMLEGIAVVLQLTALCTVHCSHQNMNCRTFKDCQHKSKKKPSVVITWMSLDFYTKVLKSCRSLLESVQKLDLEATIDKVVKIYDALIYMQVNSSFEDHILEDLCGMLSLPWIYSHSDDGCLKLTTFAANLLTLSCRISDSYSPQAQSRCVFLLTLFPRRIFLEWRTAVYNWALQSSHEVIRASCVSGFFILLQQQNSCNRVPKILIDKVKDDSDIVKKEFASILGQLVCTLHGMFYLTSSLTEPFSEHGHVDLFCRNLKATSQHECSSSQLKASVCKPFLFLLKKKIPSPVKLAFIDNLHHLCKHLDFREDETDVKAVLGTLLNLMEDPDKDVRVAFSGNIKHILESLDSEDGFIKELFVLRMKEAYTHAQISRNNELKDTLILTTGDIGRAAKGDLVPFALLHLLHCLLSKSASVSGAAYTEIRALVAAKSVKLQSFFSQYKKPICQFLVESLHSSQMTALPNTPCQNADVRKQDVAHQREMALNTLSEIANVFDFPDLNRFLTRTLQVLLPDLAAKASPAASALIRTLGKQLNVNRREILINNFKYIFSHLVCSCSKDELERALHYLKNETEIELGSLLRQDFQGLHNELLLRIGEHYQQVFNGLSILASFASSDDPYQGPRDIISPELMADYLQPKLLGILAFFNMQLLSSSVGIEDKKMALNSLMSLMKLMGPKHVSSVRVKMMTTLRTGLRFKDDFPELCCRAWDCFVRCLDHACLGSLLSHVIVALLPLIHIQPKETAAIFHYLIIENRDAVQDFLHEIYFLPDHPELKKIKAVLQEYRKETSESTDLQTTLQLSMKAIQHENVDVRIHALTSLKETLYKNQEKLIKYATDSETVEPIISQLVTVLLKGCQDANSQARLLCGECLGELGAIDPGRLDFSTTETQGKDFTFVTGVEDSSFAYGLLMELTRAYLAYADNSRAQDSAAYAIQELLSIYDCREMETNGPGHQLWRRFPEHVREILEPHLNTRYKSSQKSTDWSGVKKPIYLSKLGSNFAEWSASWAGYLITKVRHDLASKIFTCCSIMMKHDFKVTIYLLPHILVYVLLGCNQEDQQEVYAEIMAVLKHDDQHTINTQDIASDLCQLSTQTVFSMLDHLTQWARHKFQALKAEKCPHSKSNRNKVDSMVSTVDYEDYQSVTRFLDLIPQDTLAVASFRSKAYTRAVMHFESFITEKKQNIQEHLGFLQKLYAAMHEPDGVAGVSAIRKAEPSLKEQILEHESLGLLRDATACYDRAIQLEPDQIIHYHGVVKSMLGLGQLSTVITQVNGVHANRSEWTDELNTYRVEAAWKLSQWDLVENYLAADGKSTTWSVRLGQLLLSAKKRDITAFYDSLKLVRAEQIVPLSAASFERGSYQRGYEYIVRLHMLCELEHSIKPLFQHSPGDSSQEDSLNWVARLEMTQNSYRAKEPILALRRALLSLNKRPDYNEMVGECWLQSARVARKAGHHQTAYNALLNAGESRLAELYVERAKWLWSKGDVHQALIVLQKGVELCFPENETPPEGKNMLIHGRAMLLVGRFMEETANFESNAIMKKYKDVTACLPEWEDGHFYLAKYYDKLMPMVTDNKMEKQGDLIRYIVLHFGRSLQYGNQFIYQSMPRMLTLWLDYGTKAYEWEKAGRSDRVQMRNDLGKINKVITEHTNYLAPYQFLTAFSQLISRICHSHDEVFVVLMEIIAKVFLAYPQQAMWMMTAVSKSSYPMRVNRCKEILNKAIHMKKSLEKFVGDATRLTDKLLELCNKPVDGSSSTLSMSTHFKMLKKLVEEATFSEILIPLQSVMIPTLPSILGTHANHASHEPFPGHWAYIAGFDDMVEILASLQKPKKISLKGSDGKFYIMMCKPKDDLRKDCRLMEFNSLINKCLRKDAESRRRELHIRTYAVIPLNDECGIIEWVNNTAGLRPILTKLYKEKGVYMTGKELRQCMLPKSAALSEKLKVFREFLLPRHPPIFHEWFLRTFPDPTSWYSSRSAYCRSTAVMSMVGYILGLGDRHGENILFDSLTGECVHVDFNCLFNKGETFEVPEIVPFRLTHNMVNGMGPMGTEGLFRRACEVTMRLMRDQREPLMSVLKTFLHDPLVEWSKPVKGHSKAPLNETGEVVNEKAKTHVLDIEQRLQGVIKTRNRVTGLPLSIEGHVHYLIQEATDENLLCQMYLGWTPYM

For the compound `CS(=O)(=O)c1ccc(-c2cnc(N)c(-c3nc4cccnc4[nH]3)n2)cc1` [Compound I-112, 3-(3H-imidazo[4,5-b]pyridin-2-yl)-5-(4-(methylsulfonyl)phenyl) pyrazin-2-amine], the Ki is at most 10 nM.

As for `Nc1ncc(-c2cccc3[nH]ccc23)nc1-c1nnc(-c2ccccc2)o1` [IA-59], the Ki was in the range of 10 to 100 nM.

On to `CN(C)C(=O)c1ccc(-c2cnc(N)c(-c3nnc(Nc4cccc(Cl)c4)o3)n2)cc1` [IA-43], for which the Ki lay within 10 to 100 nM.

`Nc1ncc(-c2ccccc2C(F)(F)F)nc1C(=O)Nc1ccccc1` [Compound I-6, 3-amino-N-phenyl-6-(2-(trifluoromethyl)phenyl)pyrazine-2-carboxamide]: the Ki was 100 to 5000 nM.

For `CC(C)S(=O)(=O)c1ccc(-c2cnc(N)c(-c3nnc(N4CC(N)C4)o3)n2)cc1` [IA-111, 3-[5-(3-aminoazetidin-1-yl)-1,3,4-oxadiazol-2-yl]-5-(4-isopropylsulfonylphenyl)pyrazin-2-amine], the Ki was in the range of 100 to 5000 nM.

For the compound `Nc1ncc(-c2cccc(C(=O)N3CCOCC3)c2)nc1-c1nc2ccccc2[nH]1` [Compound I-125, (3-(5-amino-6-(1H-benzo[d]imidazol-2-yl)pyrazin-2-yl)phenyl) (morpholino)methanone], the Ki lay within 10 to 100 nM.

In the case of `CC(C)S(=O)(=O)c1ccc(-c2cnc(N)c(-c3nnc(N4CCCC(N)C4)o3)n2)cc1` (stereo not drawn) [IA-206, 3-[5-(3-amino-1-piperidyl)-1,3,4-oxadiazol-2-yl]-5-(4-isopropylsulfonylphenyl)pyrazin-2-amine], the Ki lay within 100 to 5000 nM.

For the compound `CNCc1ccc(-c2nnc(-c3nc(-c4ccc(S(=O)(=O)C(C)C)c(C)c4)cnc3N)o2)cc1` [IA-312, 5-(4-isopropylsulfonyl-3-methyl-phenyl)-3-[5-[4-(methylaminomethyl)phenyl]-1,3,4-oxadiazol-2-yl]pyrazin-2-amine], the Ki is at most 10 nM.

For the compound `Nc1ncc(-c2cccnc2)nc1C(=O)Nc1ccc2cc[nH]c2c1` [Compound V-16], the Ki is 10 to 100 nM.

Consider `Nc1ncc(-c2ccc(C(=O)NCCN3CCCCC3)cc2)nc1C(=O)Nc1ccccc1` [Compound I-49, 3-amino-N-phenyl-6-(4-(2-(piperidin-1-yl)ethylcarbamoyl)phenyl) pyrazine-2-carboxamide], for which the Ki lay in the range of 100 to 5000 nM.

Turning to `N#Cc1ncccc1-c1cnc(N)c(-c2nnc(-c3ccccc3)o2)n1` [IA-74, 3-[5-amino-6-(5-phenyl-1,3,4-oxadiazol-2-yl)pyrazin-2-yl]pyridine-2-carbonitrile], the Ki was at most 10 nM.

Regarding `Nc1ncc(-c2cccnc2)nc1C(=O)Nc1ccncc1` [Compound I-98, 3-amino-6-(pyridin-3-yl)-N-(pyridin-4-yl)pyrazine-2-carboxamide], the inhibition constant (Ki) was in the range of 100 to 5000 nM.

Turning to `CN(C)Cc1ccc(-c2cnc(N)c(-c3nnc(-c4ccc(CO)cc4)o3)n2)cc1` [IA-240, [4-[5-[3-amino-6-[4-(dimethylaminomethyl)phenyl]pyrazin-2-yl]-1,3,4-oxadiazol-2-yl]phenyl]methanol], the Ki lay in the range of 100 to 5000 nM.

For `Nc1ncc(-c2ccc(C(=O)N3CCNCC3)cc2)nc1C(=O)Nc1ccccc1` [Compound I-74, 3-amino-N-phenyl-6-(4-(piperazine-1-carbonyl)phenyl)pyrazine-2-carboxamide], the Ki was 10 to 100 nM.

Turning to `Cn1c(NC(=O)c2nc(-c3ccc(C(=O)N4CCCNCC4)cc3)cnc2N)nc2ccccc21` [Compound V-25], the Ki was in the range of 100 to 5000 nM.

Consider `CN(C)C(=O)c1ccc(-c2cnc(N)c(-c3nnc(-c4ccc(CO)cc4)o3)n2)cc1` [IA-76, 4-[5-amino-6-[5-[4-(hydroxymethyl)phenyl]-1,3,4-oxadiazol-2-yl]pyrazin-2-yl]-N,N-dimethyl-benzamide], for which the Ki is at most 10 nM.

Consider `CN(C)C(=O)c1ccc(-c2cnc(N)c(-c3nnc(-c4sccc4C#N)o3)n2)cc1` [IA-189, 4-[5-amino-6-[5-(3-cyano-2-thienyl)-1,3,4-oxadiazol-2-yl]pyrazin-2-yl]-N,N-dimethyl-benzamide], for which the inhibition constant (Ki) is 10 to 100 nM.

As to `CNCc1ccc(-c2cc(-c3nc(-c4ccc(S(=O)(=O)C(C)C)cc4)cnc3N)on2)c(C)c1` [IIA-12, 5-(4-isopropylsulfonylphenyl)-3-[3-[2-methyl-4-(methylaminomethyl)phenyl]isoxazol-5-yl]pyrazin-2-amine], the Ki is at most 10 nM.

In the case of `NC(=O)c1cccc(-c2cnc(N)c(-c3nnc(-c4ccccc4)o3)n2)c1` [IA-100, 3-[5-amino-6-(5-phenyl-1,3,4-oxadiazol-2-yl)pyrazin-2-yl]benzamide], the Ki fell in the range of 10 to 100 nM.

With `Nc1ncc(-c2ccc(N3CCOCC3)nc2)nc1-c1nc2ccccc2[nH]1` [Compound I-135, 3-(1H-benzo[d]imidazol-2-yl)-5-(6-morpholinopyridin-3-yl)pyrazin-2-amine], the Ki lay within 100 to 5000 nM.

With `Cc1ccc2nc(-c3nc(-c4ccc(C(=O)N5CCCN(C(=O)OC(C)(C)C)CC5)cc4)cnc3N)[nH]c2c1` [Compound I-147, tert-butyl 4-(4-(5-amino-6-(6-methyl-1H-benzo[d]imidazol-2-yl)pyrazin-2-yl)phenylcarbonyl)-1,4-diazepane-1-carboxylate], the Ki was at most 10 nM.

Consider `Nc1ncc(-c2ccc(C(=O)NCC3CCOCC3)cc2)nc1C(=O)Nc1ccccc1` [Compound I-69, 3-amino-N-phenyl-6-(4-((tetrahydro-2H-pyran-4-yl)methylcarbamoyl)phenyl)pyrazine-2-carboxamide], for which the Ki lay in the range of 100 to 5000 nM.

Turning to `COc1ccccc1NC(=O)c1nc(-c2cccs2)cnc1N` [Compound I-35, 3-amino-N-(2-methoxyphenyl)-6-(thiophen-2-yl)pyrazine-2-carboxamide], the inhibitory constant (Ki) fell in the range of 10 to 100 nM.

As to `Nc1ncc(-c2ccco2)nc1C(=O)Nc1ccccc1` [Compound I-41, 3-amino-6-(furan-2-yl)-N-phenylpyrazine-2-carboxamide], the inhibitory constant (Ki) lay in the range of 100 to 5000 nM.

Regarding `Nc1ncc(-c2ccsc2)nc1-c1nnc(-c2ccccc2)o1` [IA-104, 3-(5-phenyl-1,3,4-oxadiazol-2-yl)-5-(3-thienyl)pyrazin-2-amine], the Ki was 10 to 100 nM.

`Cc1ccc2nc(-c3nc(-c4ccc(C(=O)N5CCCNCC5)cc4)cnc3N)[nH]c2c1` [III-1, (4-(5-amino-6-(6-methyl-1H-benzo[d]imidazol-2-yl)pyrazin-2-yl)phenyl) (1,4-diazepan-1-yl)methanone]: the Ki was 10 to 100 nM.

Take `CN(C)C(=O)c1ccc(-c2cnc(N)c(-c3nnc(-c4cccn4C)o3)n2)cc1` [IA-135, 4-[5-amino-6-[5-(1-methylpyrrol-2-yl)-1,3,4-oxadiazol-2-yl]pyrazin-2-yl]-N,N-dimethyl-benzamide]: the Ki was at most 10 nM.

Turning to `Cc1ccc2nc(-c3nc(-c4ccc(C(=O)N5CCN(C)CC5)cc4)cnc3N)[nH]c2c1` [Compound I-150, (4-(5-amino-6-(6-methyl-1H-benzo[d]imidazol-2-yl)pyrazin-2-yl)phenyl)(4-methylpiperazin-1-yl)methanone], the Ki was 10 to 100 nM.

`Nc1ncc(-c2cccnc2)nc1-c1nnc(-c2cccs2)[nH]1` [IIIA-4, 5-(pyridin-3-yl)-3-(5-(thiophen-2-yl)-4H-1,2,4-triazol-3-yl)pyrazin-2-amine]: the inhibitory constant (Ki) was in the range of 10 to 100 nM.

In the case of `Nc1ncc(-c2cccc(C(=O)N3CCC(N4CCCC4)CC3)c2)nc1C(=O)Nc1ccccc1` [Compound I-56, 3-amino-N-phenyl-6-(3-(4-(pyrrolidin-1-yl)piperidine-1-carbonyl)phenyl)pyrazine-2-carboxamide], the Ki fell in the range of 100 to 5000 nM.

As to `CC(C)S(=O)(=O)c1ccc(-c2cnc(N)c(-c3nnc(-c4ccc(N)cc4)o3)n2)cc1` [IA-201, 3-[5-(4-aminophenyl)-1,3,4-oxadiazol-2-yl]-5-(4-isopropylsulfonylphenyl)pyrazin-2-amine], the Ki is at most 10 nM.

Regarding `CN(C)C(=O)c1ccccc1-c1cnc(N)c(-c2nnc(-c3ccccc3)o2)n1` [IA-244, 2-[5-amino-6-(5-phenyl-1,3,4-oxadiazol-2-yl)pyrazin-2-yl]-N,N-dimethyl-benzamide], the Ki fell in the range of 100 to 5000 nM.

With `Cc1ncccc1NC(=O)c1nc(-c2ccc(S(C)(=O)=O)cc2)cnc1N` [VII-5], the Ki lay within 10 to 100 nM.

In the case of `Nc1ncc(-c2cccnc2)nc1C(=O)Nc1cccc2cc[nH]c12` [Compound V-15], the Ki was 100 to 5000 nM.

With `CC(C)c1ccccc1-c1cnc(N)c(-c2nnc(-c3ccccc3)o2)n1` [IA-56], the Ki was in the range of 100 to 5000 nM.

On to `Nc1ncc(-c2ccc(S(=O)(=O)C3CCOCC3)cc2)nc1-c1nnc(-c2ccccc2F)o1` [IA-327, 3-[5-(2-fluorophenyl)-1,3,4-oxadiazol-2-yl]-5-(4-tetrahydropyran-4-ylsulfonylphenyl)pyrazin-2-amine], for which the Ki was at most 10 nM.

As to `CN(C)C(=O)c1ccc(-c2cnc(N)c(-c3nnc(-c4ccccc4-c4ccsc4)o3)n2)cc1` [IA-127, 4-[5-amino-6-[5-[2-(3-thienyl)phenyl]-1,3,4-oxadiazol-2-yl]pyrazin-2-yl]-N,N-dimethyl-benzamide], the Ki lay within 10 to 100 nM.

With `CN(C)[C@@H]1CCN(C(=O)c2ccc(-c3cnc(N)c(-c4nnc(-c5ccccc5)o4)n3)cc2F)C1` [IA-5], the Ki is at most 10 nM.

`N#Cc1ccccc1-c1cnc(N)c(-c2nnc(-c3ccccc3)o2)n1` [IA-50]: the Ki was 10 to 100 nM.

Regarding `CC(=O)Nc1nnc(-c2nc(-c3ccc(S(=O)(=O)C(C)C)cc3)cnc2N)o1` [IA-177, N-[5-[3-amino-6-(4-isopropylsulfonylphenyl)pyrazin-2-yl]-1,3,4-oxadiazol-2-yl]acetamide], the inhibition constant (Ki) fell in the range of 10 to 100 nM.

Consider `COCc1ccccc1-c1cnc(N)c(-c2nnc(-c3ccccc3)o2)n1` [IA-125, 5-[2-(methoxymethyl)phenyl]-3-(5-phenyl-1,3,4-oxadiazol-2-yl)pyrazin-2-amine], for which the Ki was 100 to 5000 nM.

On to `Nc1ncc(-c2ccc(NCCN3CCOCC3)nc2)nc1-c1nnc(-c2ccccc2)o1` [IA-72, 5-[6-(2-morpholinoethylamino)-3-pyridyl]-3-(5-phenyl-1,3,4-oxadiazol-2-yl)pyrazin-2-amine], for which the inhibition constant Ki fell in the range of 100 to 5000 nM.
